Test results: patent US20240115527A1, “CXCR1/CXCR2 INHIBITORS FOR USE IN TREATING MYELOFIBROSIS” (Icahn School of Medicine at Mount Sinai, priority 2020, published 2024)

Assays:
Format in all cases: cell-based, human
[1] = tested on: MF CD34+, CD41+ and CD33+ cells; test: Proliferation and lineage differentiation of MF mononuclear cells cultured with IL-8, flow cytometry; conditions: 50 ng/ml of IL-8, 3 days of incubation, FIG. 4A
Method: To evaluate the effects of IL-8 on MF CD34^+ cells proliferation and lineage differentiation, MF mononuclear cells (MNC cells) were cultured with StemSpan™ Serum-Free Expansion Medium (SFEM) containing 20 ng/ml of stem cell factor (SCF), thrombopoietin (TPO), FL-3L and IL-3 with or without 50 ng/ml of IL-8. The cells were harvested after 3 days of incubation. The proportion of hematopoietic cells belonging to specific lineages were determined using flow cytometry.

spleen stromal cells = test: VEGF mRNA expression by spleen stromal cells after IL-8 silencing; conditions: addition of IL-8, FIG. 3C
Text: FIGS. 3A, 3B, and 3C illustrate that reduction of IL-8 blocks VEGF, which is involved in the development of splenic endothelial cells (EC)/MF HSC niches. FIGS. 3A and 3B illustrate that LCN2 increases IL-8 and CXCL1 protein and mRNA levels in spleen stromal cells. Con: left bars. LCN2: right bars. FIG. 3C illustrates that IL-8 regulates VEGF expression. si=silencing. Ab=antibody. Con=control.
Lipocalin2 (LCN2) is a cytokine produced by MF marrow myeloid cells. Levels of LCN2 are 2-3 fold greater in the circulation of MF patients as compared to PV and ET patients and even higher as compared to healthy controls. […] IL-8 and the related chemokine CXCL1 are pro-angiogenic creating a cascade of cytokines (VEGF) contributing to the development of splenic EC/MF HSC niches. […] The positive impact of IL-8 on VEGF expression was blocked by an IL-8 neutralizing antibody.

MF CD34+ cells [2] = test: Clonal assays of MF CD34+ cells; JAK2V617F allele status of picked hematopoietic colonies; conditions: for number of colonies, Heter (JAK2V617F heterozygous) / number of colonies, Homo (JAK2V617F homozygous) / number of colonies, WT (JAK2 wild type) / number of colonies, Wild (JAK2 wild type): no ladarixin
Method: Individual hematopoietic colonies were randomly picked from clonal assays of CD34^+ cells from 6 MF cases and the JAK2V617F allele status was determined.
IL-8 alone increased the absolute numbers of JAK2V617F+ colonies, and the addition of Ladarixin reduced the numbers of JAK2V617F positive colonies stimulated by IL-8 (Tables 1-3).

normal CD34+ cells = test: Hematopoietic colony formation by normal CD34+ cells with IL-8; conditions: increasing concentrations of IL-8, FIG. 5B
MF CD34+ cells [3] = test: Colony forming assay (CFU-GM) of cultured MF CD34+ cells with IL-8
Text: FIGS. 5A, 5B. 5C, 5D, and 5E illustrate that a CXCR1/CXCR2 inhibitor reverses effects of IL-8 on MF CD34^+ cell colony formation. […] CFU-GM=colony-forming unit-granulocyte-macrophage. FIGS. 5B and 5C illustrate that IL-8 increased CFU-GM colony formation by MF CD34^+ cells in a dose dependent fashion and that the effects of IL-8 were inhibited by treatment with Ladx. FIG. 5B. Normal cells. FIG. 5C. MF cells. […] Con=control. IL-8 concentrations increase from left to right. […] P values were as follows: w/o Ladx: Con vs IL-8—10 ng: 0.159332; Con vs IL-8—20 ng: 0.011976; Con vs IL-8—50 ng: 0.00262; Con vs IL-8—100 ng: 0.00042; w/ 10 μM Ladx: Con vs Ladx: 0.315782; IL-8—10 ng vs plus Ladx: 0.295851; IL-8—20 ng vs plus Ladx: 0.077726; IL-8—50 ng vs plus Ladx: 0.031355; IL-8—100 ng vs plus Ladx: 0.081595.

normal donor CD34+ cells = test: Proliferation and lineage differentiation of normal donor cells cultured with IL-8, flow cytometry; conditions: incubated with IL-8, FIG. 4A

## IL-8: pro-inflammatory cytokine; CXCR1 and CXCR2 are its receptors
[1]
  percentage of MF CD34+, CD41+ and CD33+ cells: increased
Spleen stromal cells
  effect on decrease of VEGF mRNA expression caused by silencing of IL-8: reversed this effect
MF CD34+ cells [2]; IL-8 alone, 6 MF cases
  absolute numbers of JAK2V617F+ colonies: increased
MF CD34+ cells [2]; MF1 CD34+ cells, IL-8 10 ng
  number of colonies, Heter (JAK2V617F heterozygous): 36
  number of colonies, Homo (JAK2V617F homozygous): 0
  number of colonies, WT (JAK2 wild type): 18
MF CD34+ cells [2]; MF1 CD34+ cells, IL-8 20 ng
  number of colonies, Heter (JAK2V617F heterozygous): 48
  number of colonies, Homo (JAK2V617F homozygous): 0
  number of colonies, WT (JAK2 wild type): 17
MF CD34+ cells [2]; MF1 CD34+ cells, IL-8 50 ng
  number of colonies, Heter (JAK2V617F heterozygous): 52
  number of colonies, Homo (JAK2V617F homozygous): 0
  number of colonies, WT (JAK2 wild type): 21
MF CD34+ cells [2]; MF1 CD34+ cells, IL-8 100 ng
  number of colonies, Heter (JAK2V617F heterozygous): 68
  number of colonies, Homo (JAK2V617F homozygous): 0
  number of colonies, WT (JAK2 wild type): 0
MF CD34+ cells [2]; MF2 CD34+ cells, IL-8 10 ng
  number of colonies, Heter (JAK2V617F heterozygous): 0
  number of colonies, Homo (JAK2V617F homozygous): 0
  number of colonies, WT (JAK2 wild type): 44
MF CD34+ cells [2]; MF2 CD34+ cells, IL-8 20 ng
  number of colonies, Heter (JAK2V617F heterozygous): 3
  number of colonies, Homo (JAK2V617F homozygous): 0
  number of colonies, WT (JAK2 wild type): 38
MF CD34+ cells [2]; MF2 CD34+ cells, IL-8 50 ng
  number of colonies, Heter (JAK2V617F heterozygous): 7
  number of colonies, Homo (JAK2V617F homozygous): 0
  number of colonies, WT (JAK2 wild type): 41
MF CD34+ cells [2]; MF2 CD34+ cells, IL-8 100 ng
  number of colonies, Heter (JAK2V617F heterozygous): 3
  number of colonies, Homo (JAK2V617F homozygous): 0
  number of colonies, WT (JAK2 wild type): 52
MF CD34+ cells [2]; MF3 CD34+ cells, IL-8 10 ng
  number of colonies, Heter (JAK2V617F heterozygous): 27
  number of colonies, Homo (JAK2V617F homozygous): 80
  number of colonies, WT (JAK2 wild type): 36
MF CD34+ cells [2]; MF3 CD34+ cells, IL-8 20 ng
  number of colonies, Heter (JAK2V617F heterozygous): 79
  number of colonies, Homo (JAK2V617F homozygous): 63
  number of colonies, WT (JAK2 wild type): 31
MF CD34+ cells [2]; MF3 CD34+ cells, IL-8 50 ng
  number of colonies, Heter (JAK2V617F heterozygous): 30
  number of colonies, Homo (JAK2V617F homozygous): 99
  number of colonies, WT (JAK2 wild type): 30
MF CD34+ cells [2]; MF3 CD34+ cells, IL-8 100 ng
  number of colonies, Heter (JAK2V617F heterozygous): 32
  number of colonies, Homo (JAK2V617F homozygous): 95
  number of colonies, WT (JAK2 wild type): 42
MF CD34+ cells [2]; MF4 CD34+ cells, IL-8 10 ng
  number of colonies, Heter (JAK2V617F heterozygous): 183
  number of colonies, Homo (JAK2V617F homozygous): 12
  number of colonies, Wild (JAK2 wild type): 0
MF CD34+ cells [2]; MF4 CD34+ cells, IL-8 20 ng
  number of colonies, Heter (JAK2V617F heterozygous): 171
  number of colonies, Homo (JAK2V617F homozygous): 0
  number of colonies, Wild (JAK2 wild type): 0
MF CD34+ cells [2]; MF4 CD34+ cells, IL-8 50 ng
  number of colonies, Heter (JAK2V617F heterozygous): 190
  number of colonies, Homo (JAK2V617F homozygous): 0
  number of colonies, Wild (JAK2 wild type): 0
MF CD34+ cells [2]; MF4 CD34+ cells, IL-8 100 ng
  number of colonies, Heter (JAK2V617F heterozygous): 174
  number of colonies, Homo (JAK2V617F homozygous): 12
  number of colonies, Wild (JAK2 wild type): 12
MF CD34+ cells [2]; MF5 CD34+ cells, IL-8 10 ng
  number of colonies, Heter (JAK2V617F heterozygous): 0
  number of colonies, Homo (JAK2V617F homozygous): 0
  number of colonies, Wild (JAK2 wild type): 124
MF CD34+ cells [2]; MF5 CD34+ cells, IL-8 20 ng
  number of colonies, Heter (JAK2V617F heterozygous): 0
  number of colonies, Homo (JAK2V617F homozygous): 0
  number of colonies, Wild (JAK2 wild type): 142
MF CD34+ cells [2]; MF5 CD34+ cells, IL-8 50 ng
  number of colonies, Heter (JAK2V617F heterozygous): 0
  number of colonies, Homo (JAK2V617F homozygous): 0
  number of colonies, Wild (JAK2 wild type): 115
MF CD34+ cells [2]; MF5 CD34+ cells, IL-8 100 ng
  number of colonies, Heter (JAK2V617F heterozygous): 0
  number of colonies, Homo (JAK2V617F homozygous): 0
  number of colonies, Wild (JAK2 wild type): 115
MF CD34+ cells [2]; MF6 CD34+ cells, IL-8 10 ng
  number of colonies, Heter (JAK2V617F heterozygous): 0
  number of colonies, Homo (JAK2V617F homozygous): 0
  number of colonies, Wild (JAK2 wild type): 115
MF CD34+ cells [2]; MF6 CD34+ cells, IL-8 20 ng
  number of colonies, Heter (JAK2V617F heterozygous): 0
  number of colonies, Homo (JAK2V617F homozygous): 0
  number of colonies, Wild (JAK2 wild type): 131
MF CD34+ cells [2]; MF6 CD34+ cells, IL-8 50 ng
  number of colonies, Heter (JAK2V617F heterozygous): 8
  number of colonies, Homo (JAK2V617F homozygous): 0
  number of colonies, Wild (JAK2 wild type): 125
MF CD34+ cells [2]; MF6 CD34+ cells, IL-8 100 ng
  number of colonies, Heter (JAK2V617F heterozygous): 12
  number of colonies, Homo (JAK2V617F homozygous): 0
  number of colonies, Wild (JAK2 wild type): 87
Normal CD34+ cells
  hematopoietic colony formation by normal CD34+ cells: did not affect
MF CD34+ cells [3]; IL-8 at doses of 50 ng/ml and 100 ng/ml, FIG. 5C
  numbers of MF CFU-GM colonies: increased
MF CD34+ cells [3]; cultured with IL-8, FIG. 5A
  colony output of cultured MF CD34+ cells compared to WT CD34+ cells: enhanced colony output
MF CD34+ cells [3]; treatment with IL-8, FIG. 5D
  CFU-GM colony formation by MF samples with the highest expression of CXCR1/CXCR2: increased
Normal donor CD34+ cells
  percentage of normal donor CD34+, CD41+ and CD33+ cell populations: decreased
